# Tested on: tetrabenazine-induced ptosis
# Assay: Test for influence on tetrabenazine-induced ptosis in mice
# Type: in vivo, mice (male, SPF-71, KF:NMRI)
# Settings: Mus musculus, po, 0.5 h, p.o., tetrabenazine 40 mg/kg i.p. 30 minutes after test substance, ptosis scored 30 minutes later, 50% of control ptosis, 95% confidence limit in parentheses
# Method: Test for influence on tetrabenazine-induced ptosis
# Male mice (SPF-71, KF:NMRI) weighing 18-22 g were allotted at random to treatment groups of 6 animals. The test substances were suspended in 1% strength methylhydroxyethylcellulose (MH)/water and administered orally at 10 ml/kg of body weight. A control group was given the solvent (1% strength MH), and the standard group was given 10 mg/kg p.o. of nomifensine (in 1% strength MH). The tetrabenazine solution used was prepared from methanesulfonate (.congruent.76.8% of base), and an amount corresponding to 40 mg/kg of tetrabenazine base was administered intraperitoneally 30 minutes after the test substances. The ptosis was assessed according to the following scale 30 minutes after administration of tetrabenazine: […]
# The ptosis scores were cumulated and the result of the groups related to the maximum score achievable (6×.varies.=100%). By means of linear regression, the ED50 (mg/kg) was determined as the dose at which the degree of ptosis is 50% of the value determined in the control group.
row,Structure (SMILES),ED50
1,"C=CCC1(C(O)C(c2cccc(Cl)c2)n2ccnc2)CCCCC1 (centres unmarked) [Example 1, 1-(1-Allyl-1-cyclohexyl)-2-(3-chlorophenyl)-2-(1-imidazolyl)-ethanol]",3.9 mg/kg
2,"C=CCC(C)(C)C(O)C(c1cccc(Cl)c1)n1ccnc1 (centres unmarked) [Example 2, 1-(3Chlorophenyl)-3,3-dimethyl-1-(1-imidazolyl)-5-hexen-2-ol]",2 mg/kg
3,C=CCC(C)(C)C(O)C(c1ccc(-c2ccccc2)cc1)n1ccnc1 (centres unmarked) [Example 13],1.3 mg/kg
4,"CCCC(C)(C)C(O)C(c1ccc(-c2ccccc2)cc1)n1ccnc1 (centres unmarked) [Example 26, 1-(4-Diphenyl)-3,3-dimethyl-1-(1-imidazolyl)-2-hexanol]",1.2 mg/kg
5,"CN1Cc2c(N)cccc2C(c2ccccc2)C1 (centres unmarked) [nomifensine, reference compound]",1.2 mg/kg

# — patent US4999352A, “1-(1-aryl-2-hydroxyethyl)-imidazoles and salts thereof, medicaments containing these compounds, and the use thereof” (Hoechst Aktiengesellschaft, priority 1987, dated 1991)
